According to publication PMC9020721, “Characterization of BLUF-photoreceptors present in Acinetobacter nosocomialis” (PLoS ONE, 2022):

Legend:
AnBLUF46 = biological target: T1, AnBLUF46 (Acinetobacter nosocomialis, UniProt A0AA36NWK2); assay: UV-vis absorption and fluorescence emission of the co-purified flavin; type: binding; conditions: 20 mM Tris-HCl, 200 mM NaCl, pH 8.0, 15 °C; flavin as purified with the protein, fully oxidized; flavin identity assigned by the authors, no separate analysis
T1 construct: gene ANICBIBUN_11750; full length, 147 residues, N-terminal His-tag, pET28-TEV, E. coli BL21 (pLysS), Ni-NTA; tag cleavage not mentioned
T1 sequence (A0AA36NWK2 1-147): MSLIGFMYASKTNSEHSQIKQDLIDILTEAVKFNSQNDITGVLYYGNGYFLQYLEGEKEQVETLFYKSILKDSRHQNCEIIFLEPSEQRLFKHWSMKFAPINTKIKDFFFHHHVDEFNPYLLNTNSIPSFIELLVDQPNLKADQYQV

AnBLUF65 = biological target: T2, AnBLUF65 (Acinetobacter nosocomialis, UniProt A0AA36P071); assay: as above; type: binding; conditions: 20 mM Tris-HCl, 200 mM NaCl, pH 8.0, 15 °C; flavin as purified with the protein, fully oxidized; flavin identity assigned by the authors, no separate analysis
T2 construct: gene ANICBIBUN_09924; full length, 156 residues, N-terminal His-tag, synthetic gene in pET28a(+), E. coli BL21 (pLysS), Ni-NTA
T2 sequence (A0AA36P071 1-156): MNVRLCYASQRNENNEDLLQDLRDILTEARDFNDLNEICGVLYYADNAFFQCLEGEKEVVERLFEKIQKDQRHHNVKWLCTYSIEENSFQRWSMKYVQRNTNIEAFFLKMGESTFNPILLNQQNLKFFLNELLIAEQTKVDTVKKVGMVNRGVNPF

With `Cc1cc2nc3c(=O)[nH]c(=O)nc-3n(C[C@H](O)[C@H](O)[C@H](O)COP(=O)(O)OP(=O)(O)OC[C@H]3O[C@@H](n4cnc5c(N)ncnc54)[C@H](O)[C@@H]3O)c2cc1C` [FAD] the “UV-vis absorption and fluorescence emission of the co-purified flavin” value (AnBLUF46) was “blue-shifted compared with free FAD in the same working buffer” and the “UV-vis absorption and fluorescence emission of the co-purified flavin” value (AnBLUF65) was “blue-shifted compared with free FAD in the same working buffer”.
